# Results taken from the supplement of paper PMC6045584.
# ± gives the standard deviation of the averaged measurements.
# Columns and labels:
# CANERTINIB [1] = compound: T1, C=CC(=O)Nc1cc2c(Nc3ccc(F)c(Cl)c3)ncnc2cc1OCCCN1CCOCC1 [CANERTINIB]; assay: surviving fraction relative to DMSO-only wells; higher = less growth inhibition; details: exposure time: 5 days
# Procedure, shortened: (§1)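 Each tumour cell line was screened three times, and only lines with replicate Pearson r >0.7 and median Z' >0.3 were kept. Cells in log phase were seeded at 250–500 per well in 384-well plates, left 24 hours, then exposed continuously for five days to inhibitors at 0.5, 1, 5, 10, 50, 100, 500 and 1000 nM. Viability was read as CellTiter-Glo luminescence, with surviving fraction normalised to the median of DMSO-only wells.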
# SNX-5422 [2] = compound: T2, CC1(C)CC(=O)c2c(C(F)(F)F)nn(-c3ccc(C(N)=O)c(N[C@H]4CC[C@H](OC(=O)CN)CC4)c3)c2C1 [SNX-5422]; assay: as above; details: exposure time: 5 days
# Procedure, shortened: as §1
# SAPACITABINE [3] = compound: T3, CCCCCCCCCCCCCCCC(=O)Nc1ccn([C@@H]2O[C@H](CO)[C@@H](O)[C@@H]2C#N)c(=O)n1 [SAPACITABINE]; assay: as above; details: exposure time: 5 days
# Procedure, shortened: as §1
# BI-2536 [4] = compound: T4, CC[C@@H]1C(=O)N(C)c2cnc(Nc3ccc(C(=O)NC4CCN(C)CC4)cc3OC)nc2N1C1CCCC1 [BI-2536]; assay: as above; details: exposure time: 5 days
# Procedure, shortened: as §1
# AFATINIB [5] = compound: T5, CN(C)C/C=C/C(=O)Nc1cc2c(Nc3ccc(F)c(Cl)c3)ncnc2cc1O[C@H]1CCOC1 [AFATINIB]; assay: as above; details: exposure time: 5 days
# Procedure, shortened: as §1
# MDV3100 [6] = compound: T6, CNC(=O)c1ccc(N2C(=S)N(c3ccc(C#N)c(C(F)(F)F)c3)C(=O)C2(C)C)cc1F [MDV3100]; assay: as above; details: exposure time: 5 days
# Procedure, shortened: as §1
# [7] = compound: Cn1cc(C2=Nc3cc(NC(=O)C(N)C4CCCCC4)cc4c3C2=CNNC4=O)cn1; assay: as above; details: exposure time: 5 days
# Procedure, shortened: as §1
# TIOGUANINE [8] = compound: T7, Nc1nc2[nH]cnc2c(=S)[nH]1 [TIOGUANINE]; assay: as above; details: exposure time: 5 days
# Procedure, shortened: as §1
# CANERTINIB [9] = compound: T1, CANERTINIB; assay: area under dose-response curve of surviving fraction (unscaled, Aref=0) (surviving fraction x log10(nM)); higher = more resistant; details: exposure time: 5 days; dose range 0.5-1000 nM
# Procedure, shortened: (§2)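 Inhibitor was applied to tumour cell lines at eight concentrations (0.5 to 1000 nM) for five days in 384-well plates. Luminescence from CellTiter-Glo, scaled to DMSO-only wells, gave surviving fractions in three screens per line, and these were fitted by 3-parameter logistic regression with the drc R package. The area under the curve is an unscaled activity area. Aref was 0, and dose was on a log10 scale.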
# SNX-5422 [10] = compound: T2, SNX-5422; assay: as above; details: exposure time: 5 days; dose range 0.5-1000 nM
# Procedure, shortened: as §2
# SAPACITABINE [11] = compound: T3, SAPACITABINE; assay: as above; details: exposure time: 5 days; dose range 0.5-1000 nM
# Procedure, shortened: as §2
# BI-2536 [12] = compound: T4, BI-2536; assay: as above; details: exposure time: 5 days; dose range 0.5-1000 nM
# Procedure, shortened: as §2
# AFATINIB [13] = compound: T5, AFATINIB; assay: as above; details: exposure time: 5 days; dose range 0.5-1000 nM
# Procedure, shortened: as §2
# MDV3100 [14] = compound: T6, MDV3100; assay: as above; details: exposure time: 5 days; dose range 0.5-1000 nM
# Procedure, shortened: as §2
# [15] = compound: Cn1cc(C2=Nc3cc(NC(=O)C(N)C4CCCCC4)cc4c3C2=CNNC4=O)cn1; assay: as above; details: exposure time: 5 days; dose range 0.5-1000 nM
# Procedure, shortened: as §2
# TIOGUANINE [16] = compound: T7, TIOGUANINE; assay: as above; details: exposure time: 5 days; dose range 0.5-1000 nM
# Procedure, shortened: as §2
test system,measurement,setting,value
MDAMB231 BREAST,surviving fraction,CANERTINIB [1]; 0.5 nM,0.93 ± 0.033
same,surviving fraction,CANERTINIB [1]; 1 nM,0.937 ± 0.027
same,surviving fraction,CANERTINIB [1]; 5 nM,0.956 ± 0.022
same,surviving fraction,CANERTINIB [1]; 10 nM,0.946 ± 0.031
same,surviving fraction,CANERTINIB [1]; 50 nM,0.986 ± 0.021
same,surviving fraction,CANERTINIB [1]; 100 nM,0.989 ± 0.029
same,surviving fraction,CANERTINIB [1]; 500 nM,0.874 ± 0.02
same,surviving fraction,CANERTINIB [1]; 1000 nM,0.746 ± 0.039
same,surviving fraction,SNX-5422 [2]; 0.5 nM,0.971 ± 0.021
same,surviving fraction,SNX-5422 [2]; 1 nM,0.998 ± 0.034
same,surviving fraction,SNX-5422 [2]; 5 nM,1.01 ± 0.035
same,surviving fraction,SNX-5422 [2]; 10 nM,1.02 ± 0.018
same,surviving fraction,SNX-5422 [2]; 50 nM,0.65 ± 0.032
same,surviving fraction,SNX-5422 [2]; 100 nM,0.455 ± 0.03
same,surviving fraction,SNX-5422 [2]; 500 nM,0.0989 ± 0.0031
same,surviving fraction,SNX-5422 [2]; 1000 nM,0.0988 ± 0.0026
same,surviving fraction,SAPACITABINE [3]; 0.5 nM,0.91 ± 0.016
same,surviving fraction,SAPACITABINE [3]; 1 nM,0.919 ± 0.022
same,surviving fraction,SAPACITABINE [3]; 5 nM,0.936 ± 0.031
same,surviving fraction,SAPACITABINE [3]; 10 nM,0.927 ± 0.034
same,surviving fraction,SAPACITABINE [3]; 50 nM,0.936 ± 0.043
same,surviving fraction,SAPACITABINE [3]; 100 nM,0.882 ± 0.053
same,surviving fraction,SAPACITABINE [3]; 500 nM,0.648 ± 0.03
same,surviving fraction,SAPACITABINE [3]; 1000 nM,0.516 ± 0.019
same,surviving fraction,BI-2536 [4]; 0.5 nM,0.975 ± 0.02
same,surviving fraction,BI-2536 [4]; 1 nM,0.954 ± 0.01
same,surviving fraction,BI-2536 [4]; 5 nM,0.425 ± 0.015
same,surviving fraction,BI-2536 [4]; 10 nM,0.385 ± 0.011
same,surviving fraction,BI-2536 [4]; 50 nM,0.39 ± 0.011
same,surviving fraction,BI-2536 [4]; 100 nM,0.391 ± 0.0073
same,surviving fraction,BI-2536 [4]; 500 nM,0.338 ± 0.013
same,surviving fraction,BI-2536 [4]; 1000 nM,0.245 ± 0.0063
same,surviving fraction,AFATINIB [5]; 0.5 nM,1.05 ± 0.026
same,surviving fraction,AFATINIB [5]; 1 nM,1.05 ± 0.028
same,surviving fraction,AFATINIB [5]; 5 nM,1.06 ± 0.037
same,surviving fraction,AFATINIB [5]; 10 nM,1.05 ± 0.027
same,surviving fraction,AFATINIB [5]; 50 nM,1.04 ± 0.03
same,surviving fraction,AFATINIB [5]; 100 nM,0.995 ± 0.025
same,surviving fraction,AFATINIB [5]; 500 nM,0.668 ± 0.013
same,surviving fraction,AFATINIB [5]; 1000 nM,0.335 ± 0.021
same,surviving fraction,MDV3100 [6]; 0.5 nM,0.961 ± 0.034
same,surviving fraction,MDV3100 [6]; 1 nM,0.954 ± 0.035
same,surviving fraction,MDV3100 [6]; 5 nM,0.978 ± 0.022
same,surviving fraction,MDV3100 [6]; 10 nM,0.969 ± 0.012
same,surviving fraction,MDV3100 [6]; 50 nM,0.988 ± 0.034
same,surviving fraction,MDV3100 [6]; 100 nM,0.997 ± 0.025
same,surviving fraction,MDV3100 [6]; 500 nM,0.96 ± 0.026
same,surviving fraction,MDV3100 [6]; 1000 nM,0.944 ± 0.014
same,surviving fraction,[7]; 0.5 nM,0.95 ± 0.016
same,surviving fraction,[7]; 1 nM,0.949 ± 0.031
same,surviving fraction,[7]; 5 nM,0.964 ± 0.015
same,surviving fraction,[7]; 10 nM,0.953 ± 0.032
same,surviving fraction,[7]; 50 nM,0.908 ± 0.029
same,surviving fraction,[7]; 100 nM,0.896 ± 0.019
same,surviving fraction,[7]; 500 nM,0.544 ± 0.04
same,surviving fraction,[7]; 1000 nM,0.278 ± 0.01
same,surviving fraction,TIOGUANINE [8]; 0.5 nM,0.988 ± 0.027
same,surviving fraction,TIOGUANINE [8]; 1 nM,0.994 ± 0.021
same,surviving fraction,TIOGUANINE [8]; 5 nM,1.01 ± 0.027
same,surviving fraction,TIOGUANINE [8]; 10 nM,0.994 ± 0.028
same,surviving fraction,TIOGUANINE [8]; 50 nM,1.01 ± 0.035
same,surviving fraction,TIOGUANINE [8]; 100 nM,1.01 ± 0.035
same,surviving fraction,TIOGUANINE [8]; 500 nM,0.74 ± 0.039
same,surviving fraction,TIOGUANINE [8]; 1000 nM,0.573 ± 0.016
same,area under dose-response curve,CANERTINIB [9],3.15
same,area under dose-response curve,SNX-5422 [10],2.3
same,area under dose-response curve,SAPACITABINE [11],2.9
same,area under dose-response curve,BI-2536 [12],1.56
same,area under dose-response curve,AFATINIB [13],3.07
same,area under dose-response curve,MDV3100 [14],3.22
same,area under dose-response curve,[15],2.84
same,area under dose-response curve,TIOGUANINE [16],3.15
